pIC50: −log10 of the molar value. Counter-ions that a name gives are not always drawn.

The target in the test is T1, CCXCKR2 receptor (Homo sapiens, UniProt P25106).
T1 construct: The compounds were combined with mammary gland cells expressing the CCXCKR2 receptor in the presence of the ^125I-labeled chemokine; host or cells: MCF-7 (endogenous receptor) and/or MDA-MB-435S stably transfected with pcDNA3.1(+)-hRDC1
T1 sequence (P25106 whole entry): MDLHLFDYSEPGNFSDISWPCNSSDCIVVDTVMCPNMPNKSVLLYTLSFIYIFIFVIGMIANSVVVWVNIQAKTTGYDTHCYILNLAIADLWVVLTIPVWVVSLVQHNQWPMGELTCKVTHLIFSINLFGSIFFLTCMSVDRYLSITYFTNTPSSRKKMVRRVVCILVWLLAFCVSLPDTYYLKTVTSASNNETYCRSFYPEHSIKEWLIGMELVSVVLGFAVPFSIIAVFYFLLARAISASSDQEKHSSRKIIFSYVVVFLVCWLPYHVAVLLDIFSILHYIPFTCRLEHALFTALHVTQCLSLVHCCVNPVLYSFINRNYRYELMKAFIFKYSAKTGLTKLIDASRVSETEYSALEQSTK
Put plainly: Displacement of 125I-labeled SDF-1 from the CCXCKR2 receptor (radioligand binding, determination of IC50 values). As to conditions: concentration displacing at least 50% of 125I SDF-1 from CCXCKR2; MCF-7 and/or CCXCKR2 transfected MDA-MB-435S cells; 3 hr at 4° C. The protocol: The ability of the compounds to displace the labeled chemokine from the CCXCKR2 receptor sites at multiple concentrations was then determined with the screening process.
Compounds that were deemed effective modulators were able to displace at least 50% of the SDF-1 from the CCXCKR2 receptor at concentrations at or below 2.1 micromolar (μM), as represented by the notation (+) for certain exemplary compounds shown in Table B below, and more preferably at concentrations at or below 700 nanomolar (nM) (++). At present, especially preferred compounds can displace at least 50% of the SDF-1 from the CCXCKR2 receptor at concentrations at or below 500 nM (+++). As stated above, Exemplary compounds that met these criteria are reproduced in Table B below. All compounds were prepared as described in the Examples above, or by related methods substituting readily available starting materials.
Reagents and Cells. ^125I-labeled SDF-1 was purchased from Perkin-Elmer Life Sciences, Inc. (Boston, Mass.). The MCF-7 (adenocarcinoma; mammary gland) cell line was obtained from the American Type Culture Collection (Manassas, Va.) or and was cultured in DMEM (Mediatech, Herndon, Va.) supplemented with 10% fetal bovine serum (FBS) (HyClone Logan, Utah) and bovine insulin (0.01 mg/mL) (Sigma, St. Louis, Mo.) at 37° C. in a humidified incubator at a 5% CO2/air mixture. CCXCKR2 transfected MDA-MB-435S were produced as described below. MDA-MB-435S human breast cancer line, was purchased from ATCC, and cultured in DMEM/10% FBS medium. The complete coding sequence of the gene encoding CCXCKR2 (a.k.a.CXCR^7, hRDC1), was isolated from MCF-7 cells using μMACs mRNA isolation kit (Miltenyi Biotec, Auburn, Calif.). DNA contamination was removed by DNase digestion via RNeasy columns (Qiagen, Inc., Valencia, Calif.) and cDNA was generated using GeneAmp RNA PCR Core Kit (Applied Biosystems, Foster City, Calif.). PCR of cDNA samples was performed using Taq PCR Master Mix kit (Qiagen, Inc.) and hRDC1 primers harboring 5′ and 3′ Not I sites
Binding Analysis. Target compounds were tested to determine their ability to bind with CCXCKR2 sites on MCF-7 and/or MDA-MB-435S cells. Efficiency-maximized radioligand binding using filtration protocols as described in Dairaghi D J, et al., HHV8-encoded vMIP-I selectively engages chemokine receptor CCR5. Agonist and antagonist profiles of viral chemokines., J. Biol. Chem. 1999 Jul. 30; 274(31): 21569-74 and Gosling J, et al., Cutting edge: identification of a novel chemokine receptor that binds dendritic cell- and T cell-active chemokines including ELC, SLC, and TECK., J. Immunol. 2000 Mar. 15; 164(6):2851-6 was used.
In these assays, MCF-7 and/or MDA-MB-435S cells were interrogated with the target compounds and the ability of these compounds to displace ^125I radiolabeled SDF-1 was assessed using the protocol described in Dairaghi and Gosling. The target compounds were added to the plate to the indicated concentration and were then incubated with cells followed by the addition of radiolabeled chemokine (^125I SDF-1) for 3 hr at 4° C. in the following binding medium (25 mM HEPES, 140 mM NaCl, 1 mM CaCl2, 5 mM MgCl2 and 0.2% bovine serum albumin, adjusted to pH 7.1). All assays were then incubated for 3 hrs at 4° C. with gentle agitation. Following incubation in all binding assays, reactions were aspirated onto PEI-treated GF/B glass filters (Packard) using a cell harvester (Packard) and washed twice (25 mM HEPES, 500 mM NaCl, 1 mM CaCl2, 5 mM MgCl2, adjusted to pH 7.1). Scintillant (MicroScint 10, Packard) was added to the wells, and the filters were counted in a Packard Topcount scintillation counter. Data were analyzed and plotted using Prism (GraphPad Prism version 3.0a for Macintosh, GraphPad Software, www.graphpad.com).
In turn, `COc1cc(C(=O)N(C/C(C)=C/c2ccc(F)cc2F)C[C@@H]2CCCN2CC2(N(C)C)CCCC2)ccc1OC(F)F` (stereo in doubt) [Compound 15, 4-Difluoromethoxy-N-[3-(2,4-difluoro-phenyl)-2-methyl-allyl]-N-[1-(1-dimethylamino-cyclopentylmethyl)-pyrrolidin-2-ylmethyl]-3-methoxy-benzamide] gave a pIC50 of at least 6.30.

The molecule `COc1cc(C(=O)N(C/C(C)=C/c2ccccc2)C[C@@H]2C[C@@H]3CCCC[C@@H]3N2)cc2c1OC(C)(C)O2` [Compound 1, 7-Methoxy-2,2-dimethyl-benzo[1,3]dioxole-5-carboxylic acid (2-methyl-3-phenyl-allyl)-[(2S,6S,7S)-1-(octahydro-indol-2-yl)methyl]-amide] showed a pIC50 of at least 6.30.

In turn, `COc1cc(C(=O)N(C/C(C)=C/c2ccccc2)C[C@@H]2C[C@@H]3CCC[C@@H]3N2)cc2c1OC(C)(C)O2` [Compound 2, 7-Methoxy-2,2-dimethyl-benzo[1,3]dioxole-5-carboxylic acid (2-methyl-3-phenyl-allyl)-[(2S,5S,6S)-1-(octahydro-cyclopenta[b]pyrrol-2-yl)methyl]-amide] had a pIC50 of at least 6.30. Consider `COc1cc(C(=O)N(C/C(C)=C/c2ccc(F)cc2F)C[C@@H]2C[C@@H]3CCCC[C@@H]3N2)ccc1OC(F)F` [Compound 3, 4-Difluoromethoxy-N-[(E)-3-(2,4-difluoro-phenyl)-2-methyl-allyl]-3-methoxy-N-[(2S,3aS,7aS)-1-(octahydro-indol-2-yl)methyl]-benzamide], for which the negative-log IC50 (pIC50) was at least 6.30. `COc1cc(C(=O)N(C/C(C)=C/c2ccc(F)cc2F)C[C@@H]2C[C@@H]3CCCC[C@@H]3N2)cc2c1OC(C)(C)O2` [Compound 4, 7-Methoxy-2,2-dimethyl-benzo[1,3]dioxole-5-carboxylic acid [(E)-3-(2,4-difluoro-phenyl)-2-methyl-allyl]-[(2S,3aS,7aS)-1-(octahydro-indol-2-yl)methyl]-amide]: the negative-log IC50 (pIC50) is at least 6.30.

`COc1ccc(C(=O)N(C/C(C)=C/c2ccc(F)cc2F)C[C@@H]2C[C@@H]3CCCC[C@@H]3N2)cc1OC` [Compound 5, N-[(E)-3-(2,4-Difluoro-phenyl)-2-methyl-allyl]-3,4-dimethoxy-N-[(2S,3aS,7aS)-1-(octahydro-indol-2-yl)methyl]-benzamide] had a negative logarithm of the IC50 (pIC50) of at least 6.30. For the molecule `COc1cc(C(=O)N(C/C(C)=C/c2ccccc2)CC2CCCN2C[C@H]2CC[C@@H](NC(C)C)CC2)cc2c1OC(C)(C)O2` (stereo partly drawn) [Compound 6, Methoxy-2,2-dimethyl-benzo[1,3]dioxole-5-carboxylic acid [(S)-1-(4-isopropylamino-cyclohexylmethyl)-pyrrolidin-2-ylmethyl]-((E)-2-methyl-3-phenyl-allyl)-amide], the pIC50 was at least 6.30. In turn, `COc1ccc(C(=O)N(C/C(C)=C/c2ccc(F)cc2F)C[C@@H]2CCCN2C[C@H]2CC[C@@H](N)C2)cc1OC` [Compound 7, N-[(S)-1-((1S,3R)-3-Amino-cyclopentylmethyl)-pyrrolidin-2-ylmethyl]-N-[(E)-3-(2,4-difluoro-phenyl)-2-methyl-allyl]-3,4-dimethoxy-benzamide] had a negative logarithm of the IC50 (pIC50) of at least 6.30. Then `COc1ccc(C(=O)N(C/C(C)=C/c2ccc(F)cc2F)C[C@@H]2CCCN2C[C@H]2CC[C@H](NS(C)(=O)=O)CC2)cc1OC` [Compound 9, N-(S)-[(E)-3-(2,4-Difluoro-phenyl)-2-methyl-allyl]-N-[(S)-1-(4-methanesulfonylamino-cyclohexylmethyl)-pyrrolidin-2-ylmethyl]-3,4-dimethoxy-benzamide], with at least 6.30. As for `COc1ccc(C(=O)N(C/C(C)=C/c2ccc(F)cc2F)C[C@@H]2CCCN2CC2CCC(N)CC2)cc1OC` (stereo partly drawn) [Compound 10, N-[(S)-1-(4-Amino-cyclohexylmethyl)-pyrrolidin-2-ylmethyl]-N-[(E)-3-(2,4-difluoro-phenyl)-2-methyl-allyl]-3,4-dimethoxy-benzamide], the figure is at least 6.30; as for `COc1cc(C(=O)N(C/C(C)=C/c2ccc(F)cc2F)C[C@@H]2CCCN2C[C@H]2CC[C@@H](NS(C)(=O)=O)CC2)ccc1OC(F)F` [Compound 11], at least 6.30; as for `COc1ccc(C(=O)N(C/C(C)=C/c2ccc(F)cc2F)C[C@@H]2CCCN2C[C@H]2CC[C@@H](N)CC2)cc1OC` [Compound 13, N-[1-(4-amino-cyclohexylmethyl)-pyrrolidin-2-ylmethyl]-N-[3-(2,4-difluoro-phenyl)-2-methyl-allyl]-3,4-dimethoxy-benzamide], at least 6.30.

With `COc1cc(C(=O)N(C/C(C)=C/c2ccc(F)cc2F)C[C@H]2CCCN2C[C@H]2CC[C@@H](N)CC2)ccc1OC(F)F` [Compound 14], the pIC50 is at least 6.30.

`COc1cc(C(=O)N(C/C(C)=C/c2ccc(F)cc2F)CC2CCCN2CC2(N)CCCC2)ccc1OC(F)F` (stereo not drawn) [Compound 16, N-[1-(1-Amino-cyclopentylmethyl)-pyrrolidin-2ylmethyl]-4-difluoromethoxy-N-[3-(2,4-difluoro-phenyl)-2-methyl-allyl]-3-methoxy-benzamide] showed a pIC50 of at least 6.15. In turn, `COc1cc(C(=O)N(C/C(C)=C/c2ccc(F)cc2F)CC2CCCN2CC2(NS(C)(=O)=O)CCCC2)ccc1OC(F)F` (stereo not drawn) [Compound 17] had a pIC50 of at least 6.30. Then `COc1cc(C(=O)N(C/C(C)=C/c2ccc(F)cc2F)Cc2nccn2C)ccc1OC(F)F` [Compound 18, 4-difluoromethoxy-N-[3-(2,4-difluoro-phenyl)-2-methyl-allyl]-3-methoxy-N-(1-methyl-1H-imidazol-2-ylmethyl)-benzamide], with at least 5.68; and `COc1ccc(C(=O)N(CC2=NCCN2)C/C(C)=C/c2ccc(F)cc2F)cc1OC` [Compound 19, N-[(E)-3-(2,4-Difluoro-phenyl)-2-methyl-allyl]-N-(4,5-dihydro-1 H-imidazol-2-ylmethyl)-3,4-dimethoxy-benzamide hydrochloride], with at least 6.30. As to `COc1ccc(C(=O)N(C/C(C)=C/c2ccc(F)cc2F)CC2CCC3COCCN32)cc1OC` (stereo not drawn) [Compound 20], the negative logarithm of the IC50 (pIC50) is at least 5.68.
